Measured values taken from US12037344B2, “NLRP3 modulators” (INNATE TUMOR IMMUNITY, INC., priority 2018, dated 2024).
Read-outs that look alike come from different tables or passages of the source.

Assays:
[1] = target: T1, TLR8 (Homo sapiens, UniProt Q9NR97); assay: In vitro human TLR8 binding reporter assay (HEK-Blue, NF-kB/AP1-inducible SEAP); format: cell-based; conditions: activity range, read-out: TLR8 Agonist EC50
T1 construct: human HEK-Blue cells co-expressing a TLR7 or TLR8 gene
T1 sequence (Q9NR97 27-1041): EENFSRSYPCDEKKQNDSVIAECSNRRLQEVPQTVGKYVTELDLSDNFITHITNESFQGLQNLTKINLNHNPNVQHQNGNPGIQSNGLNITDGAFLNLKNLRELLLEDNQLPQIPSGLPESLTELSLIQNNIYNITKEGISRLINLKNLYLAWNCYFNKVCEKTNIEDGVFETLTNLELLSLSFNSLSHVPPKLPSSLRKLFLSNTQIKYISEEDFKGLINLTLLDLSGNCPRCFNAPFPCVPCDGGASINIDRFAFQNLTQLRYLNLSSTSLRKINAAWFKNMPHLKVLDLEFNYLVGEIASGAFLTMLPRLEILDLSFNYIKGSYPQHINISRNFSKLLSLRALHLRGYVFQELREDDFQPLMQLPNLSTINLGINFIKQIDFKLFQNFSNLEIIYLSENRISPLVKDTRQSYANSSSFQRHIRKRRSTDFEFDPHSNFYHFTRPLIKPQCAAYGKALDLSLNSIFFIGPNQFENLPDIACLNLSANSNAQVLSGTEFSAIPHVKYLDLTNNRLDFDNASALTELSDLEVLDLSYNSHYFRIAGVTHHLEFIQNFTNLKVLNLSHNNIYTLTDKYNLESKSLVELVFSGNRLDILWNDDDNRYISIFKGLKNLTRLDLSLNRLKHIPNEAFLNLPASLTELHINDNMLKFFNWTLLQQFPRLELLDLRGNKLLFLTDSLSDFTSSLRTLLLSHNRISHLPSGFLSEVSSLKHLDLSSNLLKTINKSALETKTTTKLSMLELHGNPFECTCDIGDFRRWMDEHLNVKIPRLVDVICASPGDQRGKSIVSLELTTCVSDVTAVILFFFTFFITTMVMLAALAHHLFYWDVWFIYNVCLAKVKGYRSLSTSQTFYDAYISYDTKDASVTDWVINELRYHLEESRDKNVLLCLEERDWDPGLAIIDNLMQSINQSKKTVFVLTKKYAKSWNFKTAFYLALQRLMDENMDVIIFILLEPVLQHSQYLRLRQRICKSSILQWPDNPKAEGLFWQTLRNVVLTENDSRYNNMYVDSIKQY
Procedure, shortened: (§1)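 EC50s come from NF-kB/AP1-driven SEAP secretion in HEK-Blue cells expressing TLR7 or TLR8, measured with Quanti-Blue after an 18 h compound incubation. Maximal response is defined by a 50 μM reference standard.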

[2] = tested on: THP-1 cells; assay: Measurement of IL-1β production, hTRF protocol (second alternative procedure), THP-1 cells; format: cell-based, human; conditions: human cells, read-out: NLRP3 hILIB EC50
Procedure, shortened: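 THP-1 cells differentiated overnight with 50 ng/ml PMA, then plated at 50,000 cells/well in RPMI with 2% FBS onto serial compound dilutions (top final concentration 10 μM) for 2 hours at 37° C. Supernatant IL-1β measured by hTRF (antibodies at 1:40, overnight at 4° C), read at 665/615 nm against a standard curve.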

[3] = target: T2, TLR7 (Homo sapiens, UniProt Q9NYK1); assay: In vitro human TLR7 binding reporter assay (HEK-Blue, NF-kB/AP1-inducible SEAP); format: cell-based; conditions: activity range, read-out: TLR7 Agonist EC50
T2 construct: human HEK-Blue cells co-expressing a TLR7 or TLR8 gene
T2 sequence (Q9NYK1 27-1049): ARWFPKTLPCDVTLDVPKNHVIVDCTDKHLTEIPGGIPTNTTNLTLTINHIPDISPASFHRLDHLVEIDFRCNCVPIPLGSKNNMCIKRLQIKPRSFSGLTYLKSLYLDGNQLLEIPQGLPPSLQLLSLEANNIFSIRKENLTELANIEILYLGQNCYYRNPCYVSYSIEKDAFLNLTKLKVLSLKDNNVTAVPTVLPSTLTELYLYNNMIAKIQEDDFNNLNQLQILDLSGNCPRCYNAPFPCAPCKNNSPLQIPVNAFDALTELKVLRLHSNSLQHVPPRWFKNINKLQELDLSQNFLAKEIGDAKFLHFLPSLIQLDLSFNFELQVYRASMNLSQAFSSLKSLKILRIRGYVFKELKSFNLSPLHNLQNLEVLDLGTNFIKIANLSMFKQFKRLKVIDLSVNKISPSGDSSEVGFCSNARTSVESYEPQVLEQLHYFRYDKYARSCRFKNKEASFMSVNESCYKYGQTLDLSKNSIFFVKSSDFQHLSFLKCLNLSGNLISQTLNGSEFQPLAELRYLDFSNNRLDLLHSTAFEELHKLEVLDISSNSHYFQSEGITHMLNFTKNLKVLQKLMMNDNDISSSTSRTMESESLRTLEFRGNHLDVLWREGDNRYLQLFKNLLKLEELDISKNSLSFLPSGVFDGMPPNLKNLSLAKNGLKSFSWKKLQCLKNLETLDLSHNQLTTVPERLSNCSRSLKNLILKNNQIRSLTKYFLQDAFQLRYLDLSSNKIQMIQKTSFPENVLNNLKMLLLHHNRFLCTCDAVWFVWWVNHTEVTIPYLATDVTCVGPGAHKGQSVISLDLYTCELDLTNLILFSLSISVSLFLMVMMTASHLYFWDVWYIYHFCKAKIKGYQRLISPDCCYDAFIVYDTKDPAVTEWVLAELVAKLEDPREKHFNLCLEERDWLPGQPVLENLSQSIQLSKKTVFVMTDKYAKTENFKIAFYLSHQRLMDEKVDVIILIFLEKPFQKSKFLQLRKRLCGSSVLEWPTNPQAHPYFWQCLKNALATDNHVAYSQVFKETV
Procedure, shortened: as §1

[4] = Homo sapiens, THP-1, IL-1β production

| Structure (SMILES) | EC50 [1] [µM] | EC50 [2, 4] [µM] | EC50 [3] [µM] | EC50 ([2]; IL-1β production) [µM] |
| --- | --- | --- | --- | --- |
| COCCN(C)C(=O)Cn1cc2c(n1)c(N)nc1cc(-c3cc[nH]n3)ccc12 [Example 542] | > 100 | 1.58 | > 100 | – |
| Nc1nc2cc(-c3cc[nH]n3)ccc2c2cn(CC(=O)N3CC(F)C3)nc12 [Example 543] | > 100 | 2.03 | > 100 | – |
| Nc1nc2cc(-c3cc[nH]n3)ccc2c2cn(CC(=O)N[C@@H]3CCOC3)nc12 [Example 544] | > 100 | – | > 100 | 4.36 |
| Nc1nc2cc(-c3cc[nH]n3)ccc2c2cn(CC(=O)N3CC(F)(F)C3)nc12 [Example 545] | > 100 | 1.79 | > 100 | – |
| COC1CN(C(=O)Cn2cc3c(n2)c(N)nc2cc(-c4cc[nH]n4)ccc23)C1 [Example 546] | > 100 | 3.27 | > 100 | – |
| CN(CCO)C(=O)Cn1cc2c(n1)c(N)nc1cc(-c3cc[nH]n3)ccc12 [Example 547] | > 100 | 5.3 | > 100 | – |
| Nc1nc2cc(-c3cc[nH]n3)ccc2c2cn(CC(=O)NC3CCC3)nc12 [Example 548] | > 100 | 0.78 | > 100 | – |
| CN(C(=O)Cn1cc2c(n1)c(N)nc1cc(-c3cc[nH]n3)ccc12)[C@H]1CCOC1 [Example 549] | > 100 | 3.95 | > 100 | – |
| Nc1nc2cc(-c3cc[nH]n3)ccc2c2cn(CC(=O)NCC3CCOCC3)nc12 [Example 550] | > 100 | 5.01 | > 100 | – |
| N#CCn1cc2c(n1)c(N)nc1cc(-c3cc[nH]n3)ccc12 [Example 551] | > 100 | 2.24 | > 100 | – |
| CN1CCN(C(=O)Cn2cc3c(n2)c(N)nc2cc(-c4cc[nH]n4)ccc23)CC1 [Example 552] | > 100 | 9.89 | > 100 | – |
| CN(C)C(=O)Cn1cc2c(N)nc3cc(-n4cccn4)ccc3c2n1 [Example 553] | > 100 | 2.11 | > 100 | – |
| CNC(=O)Cn1cc2c(N)nc3cc(-n4cccn4)ccc3c2n1 [Example 554] | > 100 | 0.46 | > 100 | – |
| NC(=O)Cn1cc2c(N)nc3cc(-n4cccn4)ccc3c2n1 [Example 555] | > 100 | 0.33 | > 100 | – |
| CNC(=O)CCn1cc2c(N)nc3cc(-n4cccn4)ccc3c2n1 [Example 556] | > 100 | 1.82 | > 100 | – |
| N#CCCn1cc2c(N)nc3cc(-n4cccn4)ccc3c2n1 [Example 557] | > 100 | 0.42 | > 100 | – |
| NC(=O)CCn1cc2c(N)nc3cc(-n4cccn4)ccc3c2n1 [Example 558] | > 100 | 0.63 | > 100 | – |
| N#CCCCCn1cc2c(N)nc3cc(-n4cccn4)ccc3c2n1 [Example 559] | > 100 | 0.6 | > 100 | – |
| CNC(=O)C(C)n1cc2c(N)nc3cc(-c4ccn[nH]4)ccc3c2n1 (stereo not drawn) [Example 560] | > 100 | 0.36 | > 100 | – |

| Structure (SMILES) | EC50 [1] [µM] | EC50 [2, 4] [µM] | EC50 [3] [µM] | EC50 ([2]; IL-1β production) [µM] |
| --- | --- | --- | --- | --- |
| CC(C(=O)N(C)C)n1cc2c(N)nc3cc(-c4ccn[nH]4)ccc3c2n1 (stereo not drawn) [Example 561] | > 100 | 0.95 | > 100 | – |
| CC(C(=O)NC1CCC1)n1cc2c(N)nc3cc(-c4ccn[nH]4)ccc3c2n1 (stereo not drawn) [Example 562] | > 100 | 0.7 | > 100 | – |
| CC(C(=O)NCc1ccccn1)n1cc2c(N)nc3cc(-c4ccn[nH]4)ccc3c2n1 (stereo not drawn) [Example 563] | > 100 | 9.21 | > 100 | – |
| COC1CCN(C(=O)C(C)n2cc3c(N)nc4cc(-c5ccn[nH]5)ccc4c3n2)CC1 (stereo not drawn) [Example 564] | > 100 | 15.5 | > 100 | – |
| CC(C(=O)NCc1cccnc1)n1cc2c(N)nc3cc(-c4ccn[nH]4)ccc3c2n1 (stereo not drawn) [Example 565] | > 100 | 4.18 | > 100 | – |
| CC(C(=O)NCC1CCOCC1)n1cc2c(N)nc3cc(-c4ccn[nH]4)ccc3c2n1 (stereo not drawn) [Example 566] | > 100 | 27.6 | > 100 | – |
| CC(C(=O)NCC(F)F)n1cc2c(N)nc3cc(-c4ccn[nH]4)ccc3c2n1 (stereo not drawn) [Example 567] | > 100 | 0.97 | > 100 | – |
| CC(C(=O)NCCO)n1cc2c(N)nc3cc(-c4ccn[nH]4)ccc3c2n1 (stereo not drawn) [Example 568] | > 100 | 2.1 | > 100 | – |
| CC(C)NC(=O)C(C)n1cc2c(N)nc3cc(-c4ccn[nH]4)ccc3c2n1 (stereo not drawn) [Example 569] | > 100 | 0.94 | > 100 | – |
| CC(C(=O)N1CCOCC1)n1cc2c(N)nc3cc(-c4ccn[nH]4)ccc3c2n1 (stereo not drawn) [Example 570] | > 100 | 5.13 | > 100 | – |
| CC(C(=O)NCc1ccccc1)n1cc2c(N)nc3cc(-c4ccn[nH]4)ccc3c2n1 (stereo not drawn) [Example 571] | > 100 | 2.02 | > 100 | – |
| CC(C(=O)NCCCO)n1cc2c(N)nc3cc(-c4ccn[nH]4)ccc3c2n1 (stereo not drawn) [Example 572] | > 100 | 4.41 | > 100 | – |
| CCN(CC)CCNC(=O)C(C)n1cc2c(N)nc3cc(-c4ccn[nH]4)ccc3c2n1 (stereo not drawn) [Example 573] | > 100 | 6.59 | > 100 | – |
| CC(C(=O)NC(C)(C)CO)n1cc2c(N)nc3cc(-c4ccn[nH]4)ccc3c2n1 (stereo not drawn) [Example 574] | > 100 | 14 | > 100 | – |
| CC(C(=O)N1CCS(=O)(=O)CC1)n1cc2c(N)nc3cc(-c4ccn[nH]4)ccc3c2n1 (stereo not drawn) [Example 575] | > 100 | 19.7 | > 100 | – |
| CC(C(=O)N1CCC1)n1cc2c(N)nc3cc(-c4ccn[nH]4)ccc3c2n1 (stereo not drawn) [Example 576] | > 100 | 1.61 | > 100 | – |
| CC(C(=O)N1CC(F)(F)C1)n1cc2c(N)nc3cc(-c4ccn[nH]4)ccc3c2n1 (stereo not drawn) [Example 577] | > 100 | 2.32 | > 100 | – |
| CC(C(=O)N1CC(C)(O)C1)n1cc2c(N)nc3cc(-c4ccn[nH]4)ccc3c2n1 (stereo not drawn) [Example 578] | > 100 | 18.6 | > 100 | – |
